Results taken from PMC10014103, “The immunometabolite itaconate stimulates OXGR1 to promote mucociliary clearance during the pulmonary innate immune response” (The Journal of Clinical Investigation, 2023).

How the values were obtained:
[1] = tested on: primary respiratory epithelial cells from Oxgr1+/+ and Oxgr1–/– mice; experiment: Calcium imaging (Fluo-4AM) of primary mouse trachea epithelial cells; type: cell-based; details: 670 μM ITA or 100 μM ATP
Description: For calcium imaging of human primary bronchial epithelial cells, cells were infected with 2 CRISPR lentiviruses targeting OXGR1 and cultured for 2 days before calcium imaging. For calcium imaging of primary mouse cells, freshly isolated mouse tracheas were cut into rings, placed onto collagen-coated dishes, and cultured in DMEM supplemented with 10% FBS. Cells were loaded with 5 μM Fluo-4AM for 30 minutes in HBSS buffer, washed twice, and incubated for another 15 minutes for fully deesterification of Fluo-4AM. Cells loaded with Fluo-4AM were monitored with the BioTek Cytation 5 Cell imaging system every 300 ms for a total of 1.5 minutes after ligand administration. Fluorescence was quantified with ImageJ software (NIH).

mouse trachea = experiment: Ex vivo trachea culture, cilia beating-derived fluorescent bead movement; details: 500 μM ITA or 100 μM ATP
Description: Tracheas were harvested from mice and cut longitudinally through the middle of the trachealis muscle to expose the lumen of the trachea. Tracheas were then transferred into HBSS buffer and equilibrated for 30 minutes. With the lumen facing down, trachea tissues were transferred into 2 mL HBSS buffer supplemented with 0.5% methylcellulose, red fluorescent beads, 30 mM HEPES, and the indicated ligand. Bead flow was monitored with the BioTek Cytation 5 cell imaging system. Twenty individual beads were tracked from different fields of view in each condition, and the speed of each bead was calculated by […].

FLAG-tagged OXGR1 = molecular target: T1, FLAG-tagged OXGR1 (Homo sapiens, UniProt Q96P68); experiment: Endocytosis assay of FLAG-tagged OXGR1 in HEK293 cells; type: cell-based; details: WT OXGR1, within 10 minutes of ligand treatment
T1 construct: expressed in transfected cells
Description: For endocytosis assays, HEK293 cells stably expressing FLAG-OXGR1 were chilled on ice in DMEM medium supplemented with 30 mM HEPES for 10 minutes. […] Unbound antibody was then washed off with prechilled HBSS buffer. […] After ligand stimulation, cells were fixed and permeabilized. Subcellular localization of FLAG-tagged OXGR1 was detected using FITC-donkey anti-rabbit antibody (Invitrogen, Thermo Fisher Scientific), and nuclei were stained with DAPI (MilliporeSigma). Immunofluorescence images were captured with a Leica SP8 laser-scanning confocal microscope.

human OXGR1 [2] = molecular target: T2, human OXGR1 (Homo sapiens, UniProt Q96P68); experiment: Aequorin assay (calcium mobilization) in HEK293 cells overexpressing human OXGR1; type: cell-based
Description: (§1) Thirty-six hours after transfection, cells were maintained in serum-free medium for 12 hours and then loaded with 5 μM coelenterazine for 3 hours. Cells were trypsinized and resuspended at a density of 5 × 10^5 cells/mL in HBSS supplemented with 10 mM HEPES and 0.5% BSA. Cell suspensions of 100 μL were aliquoted into 96-well plates.

human OXGR1 [3] = molecular target: T2, human OXGR1; experiment: Fluo-4 assay in HEK293 cells expressing human OXGR1; type: cell-based
Description: For the Fluo-4AM assay, OXGR1-expressing cells were loaded with 2 μM Fluo-4AM for 30 minutes at 37°C. Excess Fluo-4AM was then washed off with HBSS buffer. After incubation at 37°C for another 10 minutes, cells were transferred onto a 96-well plate.

mouse OXGR1 = molecular target: T3, mouse OXGR1 (Mus musculus, UniProt Q6IYF8); experiment: Aequorin assay (calcium mobilization) in HEK293 cells overexpressing mouse OXGR1; type: cell-based; details: EC50, aequorin assay, mOXGR1 in HEK293 cells
T3 construct: expressed in transfected cells; host or cells: HEK293
Description: as §1

T3 sequence (Q6IYF8 whole entry): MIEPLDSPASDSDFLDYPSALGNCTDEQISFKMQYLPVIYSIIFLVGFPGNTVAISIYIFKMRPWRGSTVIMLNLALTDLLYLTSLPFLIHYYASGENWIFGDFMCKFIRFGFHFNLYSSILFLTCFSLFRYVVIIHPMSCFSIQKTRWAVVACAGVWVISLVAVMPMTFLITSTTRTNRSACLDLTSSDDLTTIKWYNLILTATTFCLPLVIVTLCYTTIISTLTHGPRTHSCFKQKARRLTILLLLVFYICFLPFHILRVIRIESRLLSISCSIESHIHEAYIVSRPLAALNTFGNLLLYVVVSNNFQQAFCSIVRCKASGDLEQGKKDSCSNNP

endocytosis of OXGR1 (FLAG-tagged OXGR1) | calcium response (agonist effect) (human OXGR1 [2]; HEK293 cells overexpressing human OXGR1, aequorin) | EC50 (human OXGR1 [3]) [µM] | EC50 (human OXGR1 [2]) [µM] | EC50 (mouse OXGR1) [µM] | SMILES | calcium mobilization, Oxgr1+/+ cells [1] | calcium mobilization, Oxgr1–/– cells [1] | movement of beads, trachea from Oxgr1+/+ mice (mouse trachea) | movement of beads, trachea from Oxgr1–/– mice (mouse trachea) | effect on α-KG– or ITA-triggered intracellular Ca2+ release (human OXGR1 [2]; addition of LTE4, OXGR1-expressing HEK293 cells)
 |  |  |  |  | Nc1ncnc2c1ncn2[C@@H]1O[C@H](COP(=O)(O)OP(=O)(O)OP(=O)(O)O)[C@@H](O)[C@H]1O [ATP, reference compound] | normal calcium release | normal calcium release | comparable speed of bead movement | comparable speed of bead movement | 
failed to show any agonizing effect | failed to show any agonizing effect |  |  |  | CCCCC/C=C\C\C=C/C=C/C=C/[C@@H](SC[C@H](N)C(=O)O)[C@@H](O)CCCC(=O)O [LTE4, Leukotriene E4, reference compound] |  |  |  |  | did not prevent, and even moderately enhanced
rapid endocytosis of OXGR1 was triggered |  | 161 ± 34.7 | 248 ± 58.6 | 241 ± 61.1 | O=C(O)CCC(=O)C(=O)O [α-KG, α-ketoglutaric acid, reference compound] |  |  |  |  | 
